# Test results from patent US20170008888A1 (KYORIN PHARMACEUTICAL CO., LTD., priority 2014, published 2017).
# How the values were obtained:
# [1] = target: T1, AurA (Homo sapiens, UniProt O14965); experiment: Probe-based (AX9989) kinase profiling in Jurkat lysate: AurA; type: binding; settings: screening concentration 10 μM; read-out: AurA Inhibition % at indicated screening concentration
# T1 construct: screened for activity against several kinases in Jurkat cells; endogenous in cells; host or cells: Jurkat cell lysate
# T1 sequence (O14965 1-403): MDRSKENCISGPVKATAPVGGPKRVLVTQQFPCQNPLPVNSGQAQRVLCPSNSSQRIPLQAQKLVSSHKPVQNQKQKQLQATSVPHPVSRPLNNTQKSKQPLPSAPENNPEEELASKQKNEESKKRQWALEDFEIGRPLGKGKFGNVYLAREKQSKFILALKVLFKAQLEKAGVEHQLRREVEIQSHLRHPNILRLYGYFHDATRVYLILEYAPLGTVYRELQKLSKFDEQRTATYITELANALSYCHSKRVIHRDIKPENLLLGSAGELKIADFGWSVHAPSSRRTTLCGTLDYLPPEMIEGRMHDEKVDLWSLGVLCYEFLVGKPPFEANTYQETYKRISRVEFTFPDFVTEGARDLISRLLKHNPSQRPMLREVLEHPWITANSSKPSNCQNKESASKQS
# How it was run: (§1)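 Compounds were pre-incubated for 15 min at room temperature with gel-filtered Jurkat cell lysate supplemented with 20 mM MnCl2, after which the acyl phosphate ATP probe AX9989 was added at 5 μM final. Labeled active-site peptides were enriched after tryptic digestion and measured by LC/MS, with percent inhibition taken relative to samples without compound.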
# [2] = target: T2, TAO2 (Homo sapiens, UniProt Q9UL54); experiment: Probe-based (AX9989) kinase profiling in Jurkat lysate: TAO2; type: binding; settings: screening concentration 10 μM; read-out: TAO2 Inhibition % at indicated screening concentration
# T2 construct: screened for activity against several kinases in Jurkat cells; endogenous in cells; host or cells: Jurkat cell lysate
# T2 sequence (Q9UL54 1-1235): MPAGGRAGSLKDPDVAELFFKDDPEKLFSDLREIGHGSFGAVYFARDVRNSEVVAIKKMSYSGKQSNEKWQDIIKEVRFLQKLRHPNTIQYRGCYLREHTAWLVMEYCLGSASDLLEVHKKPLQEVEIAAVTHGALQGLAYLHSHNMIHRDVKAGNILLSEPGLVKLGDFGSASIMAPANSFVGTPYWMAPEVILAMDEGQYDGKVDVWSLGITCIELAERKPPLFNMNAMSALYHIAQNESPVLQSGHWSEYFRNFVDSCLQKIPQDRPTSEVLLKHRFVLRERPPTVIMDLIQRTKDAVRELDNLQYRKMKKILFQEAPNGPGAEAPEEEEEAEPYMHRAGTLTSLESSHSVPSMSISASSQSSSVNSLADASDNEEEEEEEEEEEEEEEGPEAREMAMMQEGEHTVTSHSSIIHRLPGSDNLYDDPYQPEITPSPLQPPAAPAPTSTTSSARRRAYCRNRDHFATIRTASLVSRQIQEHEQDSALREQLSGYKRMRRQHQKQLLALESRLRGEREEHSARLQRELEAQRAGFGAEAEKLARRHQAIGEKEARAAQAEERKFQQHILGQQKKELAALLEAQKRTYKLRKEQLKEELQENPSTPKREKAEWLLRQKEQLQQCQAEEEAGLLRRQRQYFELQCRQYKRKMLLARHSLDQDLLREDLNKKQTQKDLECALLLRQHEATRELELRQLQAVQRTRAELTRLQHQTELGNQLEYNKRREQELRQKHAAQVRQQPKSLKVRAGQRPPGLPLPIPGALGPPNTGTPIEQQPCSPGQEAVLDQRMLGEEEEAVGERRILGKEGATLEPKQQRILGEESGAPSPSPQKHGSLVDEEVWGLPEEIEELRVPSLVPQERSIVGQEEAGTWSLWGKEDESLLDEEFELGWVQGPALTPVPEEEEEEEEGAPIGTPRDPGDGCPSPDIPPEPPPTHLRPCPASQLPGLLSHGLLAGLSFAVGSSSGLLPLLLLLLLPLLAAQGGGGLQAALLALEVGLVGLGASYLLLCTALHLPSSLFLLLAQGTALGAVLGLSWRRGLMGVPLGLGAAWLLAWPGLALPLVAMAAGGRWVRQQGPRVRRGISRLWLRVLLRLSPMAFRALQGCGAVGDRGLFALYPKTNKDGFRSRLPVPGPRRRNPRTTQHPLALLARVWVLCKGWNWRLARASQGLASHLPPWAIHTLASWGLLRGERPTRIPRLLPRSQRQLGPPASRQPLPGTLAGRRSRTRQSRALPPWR
# How it was run: as §1
# [3] = target: T3, recombinant human ERK5 catalytic domain (Homo sapiens, UniProt Q13164); experiment: Recombinant human ERK5 radiometric (HotSpot) assay; type: biochemical; settings: 10 μM ATP, 20 μM myelin basic protein substrate; read-out: rhERK5 IC50
# T3 construct: Recombinant human ERK5 catalytic domain radiometric assays; purchased Reaction Biology, Corp (Malvern, Pa.), which ran the assay as a service
# T3 sequence (Q13164 55-347 limits assumed): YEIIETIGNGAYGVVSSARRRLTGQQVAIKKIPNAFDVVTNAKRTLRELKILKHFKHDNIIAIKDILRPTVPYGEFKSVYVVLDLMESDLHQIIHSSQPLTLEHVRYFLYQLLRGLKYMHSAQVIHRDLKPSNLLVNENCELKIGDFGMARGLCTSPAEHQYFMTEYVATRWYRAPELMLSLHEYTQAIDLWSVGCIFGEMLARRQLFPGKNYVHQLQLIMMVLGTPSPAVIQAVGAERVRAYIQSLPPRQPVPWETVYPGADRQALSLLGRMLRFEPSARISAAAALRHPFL
# How it was run: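 Radiometric filter-binding HotSpot assay using [γ-33P]-ATP tracer with 10 μM cold ATP and 20 μM myelin basic protein substrate. Compounds tested in 10-point, ⅓-fold serial dilution from 20 μM; […].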
# [4] = system: AurB or AurC; experiment: Probe-based (AX9989) kinase profiling in Jurkat lysate: AurB or AurC; type: binding; settings: screening concentration 10 μM
# How it was run: as §1
inhibition at 10 µM [1] [%],inhibition at 10 µM [2] [%],IC50 [3] [nM],AurB or AurC Inhibition % at indicated screening concentration [4],Compound
≤ 35,≤ 35,20 to 50,E (E is ≦35%),CCOc1cc(C(=O)N2CCN(C3CCN(C)CC3)CC2)ccc1Nc1cc2c(cn1)N(C)C(=O)c1c(F)cccc1O2 [Compound T102]
≤ 35,≤ 35,> 200,E (E is ≦35%),C[C@@H]1C[C@H](Nc2cc3c(cn2)N(C)C(=O)c2ccccc2N3C)CC[C@H]1O [Compound T115]
